Organism: Rattus norvegicus
Type: toxicity, organism-based, Sprague-Dawley
Settings: in vivo, po, route oral GAVAGE, […]; for ABSOLUTE EOSINOPHIL / ABSOLUTE LYMPHOCYTE / ABSOLUTE MONOCYTE / ABSOLUTE SEGMENTED NEUTROPHIL / BASOPHIL / EOSINOPHIL / ERYTHROCYTE COUNT / HEMATOCRIT / HEMOGLOBIN / LEUKOCYTE COUNT / LYMPHOCYTE / MEAN CORPUSCULAR HEMOGLOBIN / MEAN CORPUSCULAR HEMOGLOBIN CONCENTRATION / MEAN CORPUSCULAR VOLUME / MONOCYTE / NEUTROPHIL / NUCLEATED RED BLOOD CELLS / PLATELET COUNT: tissue Blood; for ALANINE AMINOTRANSFERASE / ALBUMIN / ALKALINE PHOSPHATASE / ASPARTATE AMINOTRANSFERASE / BLOOD UREA NITROGEN / CARBON DIOXIDE / CHLORIDE / CHOLESTEROL / CREATINE PHOSPHOKINASE / CREATININE / GLUCOSE / LACTATE DEHYDROGENASE / LIPASE / PHOSPHORUS / POTASSIUM / SODIUM / TOTAL BILIRUBIN / TOTAL PROTEIN / URIC ACID: tissue Plasma
[1] = 130 mg/kg, 24 h, dose level Low, time 1 day
[2] = 500 mg/kg, 6 h, dose level High, time 0.25 day
[3] = 500 mg/kg, 24 h, dose level High, time 1 day

Description: DrugMatrix - Regimen: Single

CCOC(=O)C(C)(C)Oc1ccc(Cl)cc1 [CLOFIBRATE]
ABSOLUTE EOSINOPHIL [1]: 55.33 CELLS/uL | ABSOLUTE LYMPHOCYTE [1]: 15484.17 CELLS/uL | ABSOLUTE MONOCYTE [1]: 278.5 CELLS/uL | ABSOLUTE SEGMENTED NEUTROPHIL [1]: 965.33 CELLS/uL | BASOPHIL [1]: 0% | EOSINOPHIL [1]: 0.33% | ERYTHROCYTE COUNT [1]: 5.03 x10E6/uL | HEMATOCRIT [1]: 32.6% | HEMOGLOBIN [1]: 13.25 G/DL | LEUKOCYTE COUNT [1]: 16.78 x10E3/uL | LYMPHOCYTE [1]: 92.17% | MEAN CORPUSCULAR HEMOGLOBIN [1]: 26.33 pg | MEAN CORPUSCULAR HEMOGLOBIN CONCENTRATION [1]: 40.65 G/DL | MEAN CORPUSCULAR VOLUME [1]: 64.78 fL | MONOCYTE [1]: 1.67% | NEUTROPHIL [1]: 5.83% | NUCLEATED RED BLOOD CELLS [1]: 0 /100WBC | PLATELET COUNT [1]: 862.83 x10E3/uL | ALANINE AMINOTRANSFERASE [1]: 67 u/L | ALBUMIN [1]: 4.33 G/DL | ALKALINE PHOSPHATASE [1]: 318.17 u/L | ASPARTATE AMINOTRANSFERASE [1]: 75.17 u/L | BLOOD UREA NITROGEN [1]: 12.67 mg/dL | CARBON DIOXIDE [1]: 32 mmol/L | CHLORIDE [1]: 100 MEQ/L | CHOLESTEROL [1]: 47.33 mg/dL | CREATINE PHOSPHOKINASE [1]: 215.5 u/L | CREATININE [1]: 0.16 mg/dL | GLUCOSE [1]: 132.67 mg/dL | LACTATE DEHYDROGENASE [1]: 108.83 u/L | LIPASE [1]: 10.5 u/L | PHOSPHORUS [1]: 9.12 mg/dL | POTASSIUM [1]: 6.21 MEQ/L | SODIUM [1]: 142.78 MEQ/L | TOTAL BILIRUBIN [1]: 0.17 mg/dL | TOTAL PROTEIN [1]: 5.58 G/DL | URIC ACID [1]: 1.07 mg/dL | ABSOLUTE EOSINOPHIL [2]: 41.33 CELLS/uL | ABSOLUTE LYMPHOCYTE [2]: 7521 CELLS/uL | ABSOLUTE MONOCYTE [2]: 204.83 CELLS/uL | ABSOLUTE SEGMENTED NEUTROPHIL [2]: 899.5 CELLS/uL | BASOPHIL [2]: 0% | EOSINOPHIL [2]: 0.5% | ERYTHROCYTE COUNT [2]: 5.56 x10E6/uL | HEMATOCRIT [2]: 35.4% | HEMOGLOBIN [2]: 13.87 G/DL | LEUKOCYTE COUNT [2]: 8.67 x10E3/uL | LYMPHOCYTE [2]: 86.5% | MEAN CORPUSCULAR HEMOGLOBIN [2]: 24.97 pg | MEAN CORPUSCULAR HEMOGLOBIN CONCENTRATION [2]: 39.18 G/DL | MEAN CORPUSCULAR VOLUME [2]: 63.73 fL | MONOCYTE [2]: 2.33% | NEUTROPHIL [2]: 10.67% | NUCLEATED RED BLOOD CELLS [2]: 0 /100WBC | PLATELET COUNT [2]: 1195.5 x10E3/uL | ALANINE AMINOTRANSFERASE [2]: 52.5 u/L | ALBUMIN [2]: 4.53 G/DL | ALKALINE PHOSPHATASE [2]: 309.5 u/L | ASPARTATE AMINOTRANSFERASE [2]: 94.5 u/L | BLOOD UREA NITROGEN [2]: 9.33 mg/dL | CARBON DIOXIDE [2]: 22.5 mmol/L | CHLORIDE [2]: 100.67 MEQ/L | CHOLESTEROL [2]: 65.33 mg/dL | CREATINE PHOSPHOKINASE [2]: 333.17 u/L | CREATININE [2]: 0.16 mg/dL | GLUCOSE [2]: 130.33 mg/dL | LACTATE DEHYDROGENASE [2]: 146.83 u/L | LIPASE [2]: 9.83 u/L | PHOSPHORUS [2]: 11.68 mg/dL | POTASSIUM [2]: 6.42 MEQ/L | SODIUM [2]: 143.4 MEQ/L | TOTAL BILIRUBIN [2]: 0.18 mg/dL | TOTAL PROTEIN [2]: 6 G/DL | URIC ACID [2]: 1.37 mg/dL | ABSOLUTE EOSINOPHIL [3]: 42 CELLS/uL | ABSOLUTE LYMPHOCYTE [3]: 10953.5 CELLS/uL | ABSOLUTE MONOCYTE [3]: 221.67 CELLS/uL | ABSOLUTE SEGMENTED NEUTROPHIL [3]: 1432.83 CELLS/uL | BASOPHIL [3]: 0% | EOSINOPHIL [3]: 0.33% | ERYTHROCYTE COUNT [3]: 5.6 x10E6/uL | HEMATOCRIT [3]: 35.22% | HEMOGLOBIN [3]: 14.02 G/DL | LEUKOCYTE COUNT [3]: 12.65 x10E3/uL | LYMPHOCYTE [3]: 86.83% | MEAN CORPUSCULAR HEMOGLOBIN [3]: 25.02 pg | MEAN CORPUSCULAR HEMOGLOBIN CONCENTRATION [3]: 39.8 G/DL | MEAN CORPUSCULAR VOLUME [3]: 62.93 fL | MONOCYTE [3]: 1.67% | NEUTROPHIL [3]: 11.17% | NUCLEATED RED BLOOD CELLS [3]: 0 /100WBC | PLATELET COUNT [3]: 1112.33 x10E3/uL | ALANINE AMINOTRANSFERASE [3]: 93.33 u/L | ALBUMIN [3]: 4.55 G/DL | ALKALINE PHOSPHATASE [3]: 411.33 u/L | ASPARTATE AMINOTRANSFERASE [3]: 162.83 u/L | BLOOD UREA NITROGEN [3]: 11.67 mg/dL | CARBON DIOXIDE [3]: 33.5 mmol/L | CHLORIDE [3]: 97.83 MEQ/L | CHOLESTEROL [3]: 34.83 mg/dL | CREATINE PHOSPHOKINASE [3]: 245.67 u/L | CREATININE [3]: 0.19 mg/dL | GLUCOSE [3]: 137.17 mg/dL | LACTATE DEHYDROGENASE [3]: 114.17 u/L | LIPASE [3]: 9.83 u/L | PHOSPHORUS [3]: 10.23 mg/dL | POTASSIUM [3]: 6.67 MEQ/L | SODIUM [3]: 143.3 MEQ/L | TOTAL BILIRUBIN [3]: 0.25 mg/dL | TOTAL PROTEIN [3]: 5.77 G/DL | URIC ACID [3]: 1.18 mg/dL
